Earlier results, collected in patent US9365559B2, “Crystal form of Dabrafenib and preparation method of use thereof” (Hangzhou Pushai Pharmaceutical Technology Co., LTD., priority 2013, dated 2016).

Experiments:
[1] = test system: one or more Raf-family kinases; conditions: disclosed in WO2009/137391A2 and U.S. Pat. No. 7,994,185B2; cited from earlier work
[2] = test system: BRAFV600E-mutan melanoma; conditions: patients with BRAFV600E-mutan melanoma; cited from earlier work

Compound: CC(C)(C)c1nc(-c2cccc(NS(=O)(=O)c3c(F)cccc3F)c2F)c(-c2ccnc(N)n2)s1 [Dabrafenib, N-[3-[5-(2-aminopyrimidin-4-yl)-2-(tert-butyl)thiazo-4-lyl]-2-fluorophenyl]-2,6-difluorobenzenesulfonamide]
- inhibitory effect on Raf-family kinases [1]: has the inhibitory effection
- safety profile [2]: acceptable safety profile
- therapeutical activity [2]: has therapeutical activities
